PMC8776337, “Peptides Derived from Vascular Endothelial Growth Factor B Show Potent Binding to Neuropilin‐1” (Chembiochem, 2021)
Values joined by “and” are separate entries in the source; they are usually repeats but may differ in a detail not shown here. Equal entries are not always repeated. Where two headings read alike, the source gives them in different places. Positions of bridges follow the written chain, without caps; N, C: chain ends. Residues, ends and D or L forms follow the SMILES beside them. No end group written: not given here. *: point of attachment. Palmitoyl = CCCCCCCCCCCCCCCC(=O)*; Hpt = not defined here

Experiments:
[1] = molecular target: T1, NRP1‐b1 (Homo sapiens, UniProt O14786); experiment: SPR binding of peptides to immobilised NRP1-b1; details: for Receptor occupancy: immobilised NRP1-b1
T1 construct: the immobilized b1 domain of NRP1 (NRP1‐b1); poly-histidine (TEV-cleavable) (cleaved yes); made in house; host or cells: E. coli Rosetta (DE3)
T1 sequence (O14786 275-424 limits assumed): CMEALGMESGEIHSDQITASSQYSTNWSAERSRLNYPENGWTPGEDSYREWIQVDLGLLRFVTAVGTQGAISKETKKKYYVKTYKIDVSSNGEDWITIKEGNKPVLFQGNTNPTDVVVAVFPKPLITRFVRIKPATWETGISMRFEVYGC
From the text: We then designed four additional peptides with added lipid chains (Figures 3 and 4). We investigated the effect of lipidation on the N‐terminus (MGC0171 and MGC0174) and on the side chain of a lysine in close proximity to the C‐terminus (MGC0172 and MGC0173) as shown (Figure 5). For the SPR analysis of the lipidated peptides we fitted data to a two‐state reaction model to account for the nonspecific binding of the palmitoyl side chains. Since the model assumes two binding events it provides two association (k a) and dissociation (k d) rates, and the overall equilibrium dissociation constant is calculated using the equation: KD=KD1(1+KD2), in which KD1 and KD2 are obtained as […]. The inverse of the dissociation rate corresponds to the residence time. […] The lipidated peptides were also tested for inhibition of VEGF‐A165 binding to NRP1 in a cell‐based assay (Figure 8).
Surface plasmon resonance: SPR measurements were performed using either Biacore T200 or Biacore 4000 at a constant temperature of 25 °C. All sensor chips, stock buffers, and immobilisation reagents were purchased from GE Healthcare/Cytvia and were prepared according to the manufacturer's instructions.
Chip preparation: PBS containing 0.05 % surfactant P20 was used as the running buffer during immobilisation. Proteins were immobilised onto a CM5 chip using random amine coupling following a standard procedure using the conditions specified in Table 2. A flow cell upstream of the treated flow cell was used as a reference which allowed removal of non‐specific binding to the chip.
Kinetic measurements of peptides: Peptides were injected over immobilized NRP1‐b1 for 60 s, followed by 120 or 180 s dissociation. The surface was regenerated with 1 M NaCl between injections. The SPR response curves were fit to a binding model to obtain association (ka ) and dissociation (kd ) rates which were then converted into equilibrium dissociation constant (KD ) and residence time. For a 1 : 1 binding model […] and for a two‐state binding model KD=K1(1+K2). Residence time was calculated as 1/kd .

[2] = molecular target: T2, bt‐VEGF‐A165 binding to NRP1 in HUVEC cells (Homo sapiens, UniProt O14786); experiment: Cell based binding assay, inhibition of bt-VEGF-A165 binding to NRP1; details: for IC50: 4 °C, 2 h, streptavidin-horseradish peroxidase detection; for HS (of the inhibition curve of bt‐VEGF‐A165 binding to NRP1): HUVEC cells
T2 construct: expressed in transfected cells
Description: A) N‐terminal palmitoyl VEGF‐B167 derived peptide MGC0174. B) Lysine palmitoyl peptide MGC0173. C) N‐terminal palmitoyl VEGF‐A165 derived peptide MGC0171. D) Lysine VEGF‐A165 palmitoyl peptide MGC0172.
Cell based binding assay for bt‐VEGF binding to NRP1‐b1: A flat‐bottomed 96 well plate was coated with 100 μL 10 μg/mL Poly‐D‐lysine (110 μL in 10890 μL PBS) and incubated for 1 hour at R.T. DU145 cells were seeded at a concentration of 20,000 DU145 cells/well in DMEM with 10 % FBS and incubated for 4 hours. Cells were then infected with 0.3 μL per well of adenovirus expressing NRP1 (stock at 1×1012 vp/mL) and incubated for 40 hours. The media was removed followed by washing cells twice in 200 μL of PBS per well. The plate was placed on ice and 50 μL of binding medium was added per well for total binding. Next, 50 μL of 100‐fold excess (100×btVEGF‐A165) of unlabelled‐VEGF (diluted in binding medium) was added per well for non‐specific binding. Peptides (50 μL) at the indicated concentrations were diluted in binding medium and added to specified wells. bt‐VEGF (50 μL of 4 nM; diluted in binding medium) was added per well for both total and non‐specific binding and samples. The plate was incubated at 4 °C for 2 hours. The plate was then placed on ice and the medium was removed followed by gently washing the cells 3 times in 200 μL of PBS per well.
Streptavidin‐horseradish peroxidase (100 μL; dilute to the working concentration specified on the vial label using PBS+1 % BSA=1 : 200) was added to each well. The plate was sealed and incubated for 30 minutes at room temperature. Three more washes with 200 μL PBS were done. Then, 100 μL of substrate solution was added to each well (protected from light). Colour Reagent A and B were mixed together in equal volumes within 15 minutes of use. The plate was sealed and incubated for 20 minutes at room temperature. Stop solution (50 μL) was added to each well ensuring even mixing. The plate was read using Tecan Genios plate reader using a 450 nm cut‐off filter and also with a reference 595 nm cut‐off filter. Nonspecific binding was determined in the absence of NP‐1 coated on the microplate.

[3] = Peptide stability in mouse plasma; type: in vitro ADME; details: mouse plasma pH 7.4, 37 °C, LC-MS/MS, triplicate (n=1); for Stability in mouse plasma (in words): 10 μM, 0.24 % DMSO, 0, 5, 15, 30, 60, 120 min
Description: Figure 9 Stability of VEGF‐B167 lipidated peptides in mouse plasma determined by MSMS analysis. The stability of the peptides is shown relative to the control eucatropine. Samples were analysed in triplicate (n=1).
Peptide stability in mouse plasma: Mouse plasma stability tests were performed by Cyprotex. In brief, peptides were incubated with mouse plasma (adjusted for pH 7.4, 37 °C) to a final concentration of 10 μM and incubation volume of 500 μL (0.24 % DMSO). After the incubation period (0, 5, 15, 30, 60, and 120 min), the reactions were stopped by transferring 50 μL of incubate to 150 μL acetonitrile containing internal standard. Plasma proteins were precipitated out by centrifuging at 3,000 rpm for 45 min at 4 °C. The supernatant was diluted 1 : 1 with water and analysed by LC‐MS/MS.

[4] = molecular target: T3, b1 domain of neuropilin‐1 (NRP1‐b1) (human, UniProt O14786 273-427); experiment: SPR; NRP1-b1 immobilised on a CM5 chip by random amine coupling; peptides injected for 60 s, 120 or 180 s dissociation; 25 °C; regeneration with 1 M NaCl; kinetic fit, 1:1 model (MGC0122, MGC0123, MGC0124) or two-state model (MGC0171, MGC0172, MGC0173, MGC0174); details: both partners purified
T3 construct: neuropilin-1, human, b1 domain; also called NRP1‐b1 domain; NRP1 b1 domain; source: E. coli Rosetta (DE3), purified (HisTrap, TEV cleavage, Superdex 75, SP FF ion exchange)
T3 sequence: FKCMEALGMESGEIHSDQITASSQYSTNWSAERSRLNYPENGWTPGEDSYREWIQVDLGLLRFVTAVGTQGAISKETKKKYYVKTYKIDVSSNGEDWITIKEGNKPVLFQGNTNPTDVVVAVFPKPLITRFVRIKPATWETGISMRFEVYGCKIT

[5] = SPR, immobilised NRP1-b1, 25 °C, two-state model, lipidated peptides, read-out: Second residence time calculated from two‐state model (converted)
[6] = read-out: Residence time (1/kd)
[7] = IC50, cell‐based activity (HUVECs), inhibition of bt‐VEGF‐A165 binding to NRP1, bt-VEGF-A165 4 nM

T2 sequence (O14786 22-923): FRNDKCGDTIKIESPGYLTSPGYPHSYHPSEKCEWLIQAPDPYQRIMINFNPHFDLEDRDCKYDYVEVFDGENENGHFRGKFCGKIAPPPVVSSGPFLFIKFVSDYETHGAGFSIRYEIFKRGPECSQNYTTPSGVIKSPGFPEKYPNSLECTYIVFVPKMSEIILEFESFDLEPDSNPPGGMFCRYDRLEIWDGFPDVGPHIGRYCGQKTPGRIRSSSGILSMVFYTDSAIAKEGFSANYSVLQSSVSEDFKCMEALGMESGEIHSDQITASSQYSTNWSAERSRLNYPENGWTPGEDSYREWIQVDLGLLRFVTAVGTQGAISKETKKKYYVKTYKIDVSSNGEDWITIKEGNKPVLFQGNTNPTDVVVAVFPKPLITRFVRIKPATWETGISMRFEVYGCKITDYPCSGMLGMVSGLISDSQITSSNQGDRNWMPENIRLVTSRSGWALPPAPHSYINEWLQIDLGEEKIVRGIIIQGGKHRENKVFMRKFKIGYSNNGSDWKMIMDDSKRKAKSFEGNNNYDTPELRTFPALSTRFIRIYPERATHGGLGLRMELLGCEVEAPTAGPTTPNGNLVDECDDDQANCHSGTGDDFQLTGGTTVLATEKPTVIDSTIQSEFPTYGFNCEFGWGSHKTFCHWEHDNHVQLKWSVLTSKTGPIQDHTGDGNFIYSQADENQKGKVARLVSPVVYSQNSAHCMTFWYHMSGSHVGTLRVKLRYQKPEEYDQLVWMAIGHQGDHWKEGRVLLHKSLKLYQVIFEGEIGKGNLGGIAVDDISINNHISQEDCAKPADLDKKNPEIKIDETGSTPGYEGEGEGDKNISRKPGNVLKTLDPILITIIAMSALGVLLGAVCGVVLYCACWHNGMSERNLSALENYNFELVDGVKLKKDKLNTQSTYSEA

CCCCCCCCCCCCCCCC(=O)NCCCC[C@H](NC(=O)[C@H](CC(=O)O)NC(=O)[C@@H]1CSSC[C@@H]2NC(=O)[C@H](CCCNC(=N)N)NC(=O)[C@H](CO)NC(=O)[C@H](CC(=O)O)NC(=O)[C@H]([C@@H](C)O)NC(=O)[C@H](CC(N)=O)NC(=O)[C@H](CCCCN)NC(=O)[C@@H](NC(=O)[C@H](CO)NC(C)=O)CSSC[C@H](NC(=O)[C@H]([C@@H](C)O)NC(=O)[C@H](CCCNC(=N)N)NC(=O)[C@H](CCC(=O)O)NC(=O)[C@H](CC(N)=O)NC(=O)[C@H](CC(C)C)NC(=O)[C@H](CCC(=O)O)NC(=O)[C@H](CC(C)C)NC(=O)[C@H](CCC(N)=O)NC(=O)[C@H](CCCNC(=N)N)NC(=O)[C@H](C)NC(=O)[C@H](CCCCN)NC2=O)C(=O)N[C@@H](CCCNC(=N)N)C(=O)N1)C(=O)N1CCC[C@H]1C(=O)N[C@@H](CCCNC(=N)N)C(=O)N[C@@H](CCCNC(=N)N)C(=O)O [MGC0172] (Ac-SCKNTDSRCKARQLELNERTCRCDK(Palmitoyl)PRR-OH; disulfide 2-21, 9-23)
Receptor occupancy ([1]; SPR): 22±1% | residence time ([1]; SPR, immobilised NRP1-b1, 25 °C, 1:1 model, or first residence time of the two-state model, read-out: Residence time (1/kd) (converted)): 0.123 min | residence time [1, 5]: 1.99 min | Kd ([1]; SPR, peptide injected 60 s over NRP1-b1 immobilised on CM5 chip, 25 °C, 1:1 model for MGC0122/0123/0124, two-state model for lipidated peptides, read-out: KD, SPR binding to NRP1‐b1): 1220 ± 250 nM | IC50 ([2]; bt-VEGF-A165 4 nM, read-out: IC50, cell‐based activity (HUVECs), inhibition of bt‐VEGF‐A165 binding to NRP1): 10400 nM | HS (of the inhibition curve of bt‐VEGF‐A165 binding to NRP1) ([2]; bt-VEGF-A165 4 nM): 1.9

CCCCCCCCCCCCCCCC(=O)NCCCC[C@H](NC(=O)[C@H](CCCNC(=N)N)NC(=O)[C@@H]1CSSC[C@@H]2NC(=O)[C@H](CCCNC(=N)N)NC(=O)[C@H](CC(C)C)NC(=O)[C@H](Cc3ccccc3)NC(=O)[C@H](CO)NC(=O)[C@H](CCCNC(=N)N)NC(=O)[C@H](CCCNC(=N)N)NC(=O)[C@H](CCCNC(=N)N)NC(=O)[C@@H](NC(=O)[C@H](CCCNC(=N)N)NC(C)=O)CSSC[C@H](NC(=O)[C@H]([C@@H](C)O)NC(=O)[C@H](CC(=O)O)NC(=O)[C@@H]3CCCN3C(=O)[C@H](CC(N)=O)NC(=O)[C@H](CC(C)C)NC(=O)[C@H](CCC(=O)O)NC(=O)[C@H](CC(C)C)NC(=O)CNC(=O)[C@H](CCCNC(=N)N)NC(=O)CNC(=O)[C@H](CCC(N)=O)NC2=O)C(=O)N[C@@H](CCCNC(=N)N)C(=O)N1)C(=O)N[C@@H](CC(C)C)C(=O)N[C@@H](CCCNC(=N)N)C(=O)N[C@@H](CCCNC(=N)N)C(=O)O [MGC0173] (Ac-RCRRRSFLRCQGRGLELNPDTCRCRK(Palmitoyl)LRR-OH; disulfide 2-22, 10-24)
Kd [1]: 130 ± 30 nM | Receptor occupancy ([1]; SPR): 10±1% | residence time [1, 5]: 2.69 min | residence time [1, 6]: 0.0767 min | IC50 [2, 7]: 2000 nM | HS (of the inhibition curve of bt‐VEGF‐A165 binding to NRP1) ([2]; bt-VEGF-A165 4 nM): 1.8 | Stability in mouse plasma (in words) [3]: maintained much better levels throughout the course of the experiment | half-life at 10 μM ([3]; 0.24 % DMSO, 0-120 min): 51 min

CCCCCCCCCCCCCCCC(=O)N[C@@H](CCCNC(=N)N)C(=O)N[C@H]1CSSC[C@@H]2NC(=O)[C@H]([C@@H](C)O)NC(=O)[C@H](CC(=O)O)NC(=O)[C@@H]3CCCN3C(=O)[C@H](CC(N)=O)NC(=O)[C@H](CC(C)C)NC(=O)[C@H](CCC(=O)O)NC(=O)[C@H](CC(C)C)NC(=O)CNC(=O)[C@H](CCCNC(=N)N)NC(=O)CNC(=O)[C@H](CCC(N)=O)NC(=O)[C@H](CSSC[C@@H](C(=O)N[C@@H](CCCNC(=N)N)C(=O)N[C@@H](CCCCN)C(=O)N[C@@H](CC(C)C)C(=O)N[C@@H](CCCNC(=N)N)C(=O)N[C@@H](CCCNC(=N)N)C(=O)O)NC(=O)[C@H](CCCNC(=N)N)NC2=O)NC(=O)[C@H](CCCNC(=N)N)NC(=O)[C@H](CC(C)C)NC(=O)[C@H](Cc2ccccc2)NC(=O)[C@H](CO)NC(=O)[C@H](CCCNC(=N)N)NC(=O)[C@H](CCCNC(=N)N)NC(=O)[C@H](CCCNC(=N)N)NC1=O [MGC0174] (Palmitoyl-RCRRRSFLRCQGRGLELNPDTCRCRKLRR-OH; disulfide 2-22, 10-24)
Kd [1]: 330 ± 50 nM | Receptor occupancy ([1]; SPR): 47±3% | residence time [1, 5]: 4.46 min | residence time [1, 6]: 0.248 min | IC50 [2, 7]: 319 nM and 300 nM | HS (of the inhibition curve of bt‐VEGF‐A165 binding to NRP1) ([2]; bt-VEGF-A165 4 nM): 1.9 | Stability in mouse plasma (in words) [3]: quickly degraded to low levels after 15 min

CC1CC(OC(=O)C(O)c2ccccc2)CC(C)(C)N1C (stereo not drawn) [eucatropine, reference compound]
Stability in mouse plasma (in words) [3]: degraded within literature parameters

B1: MGC0123 (peptide)
chain: {6‑heptynoyl}-RCRRRSFLRCQGRGLELNPDTCRCRKLRR
modifications: disulfide (positions not given here); also: cyclised by disulphide, Cys pairing not given here
Kd [4]: 0.39 ± 0.09 µM

B2: MGC0122 (peptide)
peptide: Hpt-DRAATPHHRPQPR
modifications: reading uncertain; also: printed as Hpt‐DRAATPHHRPQPR
notes: VEGF-B186, human, the C-terminal stretch of the proteolytically processed form, ending in arginine; Only the C-terminal QPR is ordered in the crystal structure; also called VEGF‐B derived peptide MGC0122; source: synthetic peptide; bought: Peptide Protein Research (PeptideSynthetics), >95 % purity by HPLC
Kd [4]: 9.55 ± 0.17 µM
